# Entries after “also recorded” stand apart in the source; their conditions may differ. Where a name gives a salt, the structure may show the parent alone.
# What was measured:
# [1] = literature value (ref 34); cited from earlier work
# [2] = Isothermal titration calorimetry (ITC) with CB[8]; assay type: binding; conditions: 1000 μM in syringe into CB[8] 50 μM; aqueous NaCl (1 mM), 298 K
# Method: All microcalorimetric titrations were performed in a thermostated TA Nano Isothermal Titration calorimeter at atmospheric pressure and 298 K. The samples were dissolved in an aqueous NaCl (1.0 mM) solution, in order to improve the solubility of CB[8], and the concentrations of sample were calibrated by UV-Vis absorption spectroscopy after filtered by a 0.45-filter. A solution of one reactant in a syringe was sequentially injected with stirring at 150 rpm into a solution of the other reactant in the sample cell with a constant volume of 185 μL. A representative titration curve is shown in FIG. 24, each titration of reactant into the sample cell gave an apparent reaction heat caused by the formation of the inclusion complex. The reaction heat decreases gradually until a balance was reached, whereupon only the dilution heat was measured. The net reaction heat was obtained by subtracting the dilution heat from the apparent reaction heat. The resulting data were analyzed with NanoAnalyze software using a 1:1 binding model to give the complex stability constant (Ka), standard molar reaction enthalpy (ΔH), and standard deviations. Generally, the first point of the titration curve was disregarded, as there is some liquid mixing near the tip of the injection needle before ITC run. […]
# The value for K1 can be determined to be 5.8×10^7 M^−1 by analysis of the UV-Vis titration data. […]
# [3] = 1H NMR of equimolar mixture with CB[8]; assay type: binding; conditions: D2O, 298 K
# Text: The peaks in the spectrum were assigned on the basis of in-depth analyses of their 2D ^1H-^1H COSY and ROESY spectra. The chemical shifts of H-7, residing on the central phenylene groups, as well as H-5 and H-6, attached to the C═C double bonds, show (FIG. 2d) large upfield shifts (Δδ=−0.64, −0.43 and −1.12 for H-5, H-6, and H-7, respectively). While the protons on CB[8] display (FIG. 7) small upfield shifts (Δδ=−0.09, −0.11 and −0.13 for H-a, H-b, and H-c, respectively). […] Taken together, it can be concluded that, although OPVEBox^4+ and CBPQT^4+ have the same p-xylylene linkers, only OPVEBox^4+ can form ring-in-ring(s) complexes with CB[8] in aqueous solutions. […]
# All solvents and reagents were obtained commercially and used without further purification unless noted otherwise. […] UV-Vis Absorption spectra were recorded in a conventional rectangular quartz cell (10×10×45 mm) on a UV-3600 Shimadzu spectrophotometer. Fluorescence spectra were measured in a rectangular quartz cell (10×10×45 mm) on a HORIBA FluoroMax-4 spectrometer, which was equipped with an integrating sphere for absolute fluorescence quantum yields determination and time-correlated single-photon counting (TCSPC) module for emission decays. […] Electrospray ionization-mass spectra (ESI-MS) were measured on Waters Synapt G2 mass spectrometer. […]
# [4] = Water solubility (qualitative statements); assay type: physicochemical; conditions: H2O
smiles,measurement,setting,value
CC12CC3CC(C)(C1)CC(N)(C3)C2 [memantine hydrochloride],binding affinity Ka for CB[8],[1],8.3e+12 M⁻¹
"c1cc2ccc1C[n+]1ccc(cc1)-c1cc[n+](cc1)Cc1ccc(cc1)C[n+]1ccc(cc1)-c1cc[n+](cc1)C2 [CBPQT^4+, cyclobis(paraquat-p-phenylene)]",enthalpy change upon addition into CB[8],[2],no obvious enthalpy change
same,binding with CB[8] by 1H NMR,[3],may bind very weakly to the p-xylylene linkers
"O=C1N2CN3C(=O)N4CN5C(=O)N6CN7C(=O)N8CN9C(=O)N%10CN%11C(=O)N%12CN%13C(=O)N%14CN%15C(=O)N%16CN1C1C2N2CN%17C(=O)N(CN%18C(=O)N(CN%19C(=O)N(CN%20C(=O)N(CN%21C(=O)N(CN%22C(=O)N(CN%23C(=O)N(CN1C2=O)C%16C%15%23)C%14C%13%22)C%12C%11%21)C%10C9%20)C8C7%19)C6C5%18)C4C3%17 (stereo not shown) [CB[8], cucurbit[8]uril]",water solubility,[4],poor water solubility; also recorded: low solubility

# Reference: US20230322781A1 (Northwestern University, priority 2020, published 2023)
